Measurements from patent US20260068885A1, “HERBICIDAL COMPOSITIONS” (BAYER AKTIENGESELLSCHAFT, priority 2022, published 2026).

What was measured:
Assay in all cases: Post-emergence herbicidal action against harmful plants (greenhouse)
Type in all cases: in vivo
[1] = system: Polygonum convolvulus (POLCO)
[2] = system: Pharbitis purpurea (PHBPU); conditions: 5 g a.i./ha
[3] = system: Brachiaria platyphylla (BRAPP)
Description: (§1) Seeds of monocotyledonous and dicotyledonous weed and crop plants are laid out in sandy loam soil in wood-fibre pots, covered with soil and cultivated in a greenhouse under good growth conditions. 2 to 3 weeks after sowing, the test plants are treated at the one-leaf stage. The compounds of the invention, formulated in the form of wettable powders (WP) or as emulsion concentrates (EC), are then sprayed onto the green parts of the plants in the form of an aqueous suspension or emulsion at a water application rate equivalent to 600 to 800 l/ha, with addition of 0.2% wetting agent. After the test plants have been left to stand in the greenhouse under optimal growth conditions for about 3 weeks, the action of the preparations is assessed visually in comparison to untreated controls (herbicidal action in percent (%): 100% activity=the plants have died, 0% activity=like control plants). […] The tables below illustrate, in an illustrative manner, the post-emergence herbicidal action of the compounds of the invention, the herbicidal activity being stated in percent.
(§2) In the tables that follow, the abbreviations mean the following: • E: means the synergism value to be expected according to the Colby formula. • Δ SYN: means the difference between the actual and expected synergism value. • DAT: means days after treatment.

[4] = system: Sorghum halepense (SORHA)
Description: as §1, §2

Emex australis (EMEAU) = conditions: EMEAU 21 DAT; 20 g a.i./ha
Description: as §1, §2

[5] = system: Xanthium strumarium (XANST); conditions: application rate 20 g a.i./ha
Description: as §1, §2

[6] = system: Xanthium strumarium (XANST); conditions: application rate 20 g a.i./ha; 10 DAT
[7] = system: Abutilon theophrasti (ABUTH); conditions: ABUTH 21 DAT; 20 g a.i./ha
Description: as §1, with “[…],” for “left to stand in the greenhouse under optimal growth conditions for about 3 weeks,”
as §2

[8] = system: Erigeron bonariensis (ERIBO); conditions: ERIBO 21 DAT
Description: as §1, with “[…],” for “left to stand in the greenhouse under optimal growth conditions for about 3 weeks,”
as §2

Setaria viridis (SETVI) = system: Setaria viridis (SETVI)
Description: as §1, with “[…],” for “left to stand in the greenhouse under optimal growth conditions for about 3 weeks,”
as §2

Cyperus iria (CYPIR) = system: Cyperus iria (CYPIR)
Description: as §1, with “[…],” for “left to stand in the greenhouse under optimal growth conditions for about 3 weeks,”
as §2

Compound: CCn1ncc(C(=O)c2ccc(S(C)(=O)=O)c(COCC(F)(F)F)c2Cl)c1OC(=O)c1cn(C)nc1C [fenpyrazone]
- Herbicidal efficacy ([1]; POLCO 10 DAT, 5 g a.i./ha): 0%
- Herbicidal efficacy ([1]; POLCO 21 DAT, 5 g a.i./ha): 0%
- Herbicidal efficacy ([1]; POLCO 21 DAT, 20 g a.i./ha): 10%
- Herbicidal efficacy ([2]; PHBPU 10 DAT): 0%
- Herbicidal efficacy ([2]; PHBPU 21 DAT): 0%
- Herbicidal efficacy ([3]; BRAPP 10 DAT, 5 g a.i./ha): 30%
- Herbicidal efficacy ([3]; BRAPP 10 DAT, 20 g a.i./ha): 75%
- Herbicidal efficacy ([3]; BRAPP 21 DAT, 5 g a.i./ha): 10%
- Herbicidal efficacy ([3]; BRAPP 21 DAT, 20 g a.i./ha): 20%
- Herbicidal efficacy [%] against SORHA 10 DAT ([4]; application rate 5 g a.i./ha): 20%
- Herbicidal efficacy [%] against SORHA 21 DAT ([4]; application rate 5 g a.i./ha): 10%
- Herbicidal efficacy [%] against SORHA 10 DAT ([4]; application rate 20 g a.i./ha): 30%
- Herbicidal efficacy [%] against SORHA 21 DAT ([4]; application rate 20 g a.i./ha): 20%
- Herbicidal efficacy (Emex australis (EMEAU)): 0%
- Herbicidal efficacy [%] against XANST 21 DAT [5]: 70%
- Herbicidal efficacy [%] against XANST 10 DAT [6]: 88%
- Herbicidal efficacy [7]: 30%
- Herbicidal efficacy ([8]; 5 g a.i./ha): 80%
- Herbicidal efficacy ([8]; 20 g a.i./ha): 80%
- Herbicidal efficacy (Setaria viridis (SETVI); SETVI 10 DAT, 5 g a.i./ha): 30%
- Herbicidal efficacy (Setaria viridis (SETVI); SETVI 10 DAT, 20 g a.i./ha): 50%
- Herbicidal efficacy (Setaria viridis (SETVI); SETVI 21 DAT, 5 g a.i./ha): 20%
- Herbicidal efficacy (Setaria viridis (SETVI); SETVI 21 DAT, 20 g a.i./ha): 20%
- Herbicidal efficacy (Cyperus iria (CYPIR); CYPIR 10 DAT, 5 g a.i./ha): 30%
- Herbicidal efficacy (Cyperus iria (CYPIR); CYPIR 10 DAT, 20 g a.i./ha): 20%
- Herbicidal efficacy (Cyperus iria (CYPIR); CYPIR 21 DAT, 5 g a.i./ha): 30%
- Herbicidal efficacy (Cyperus iria (CYPIR); CYPIR 21 DAT, 20 g a.i./ha): 10%
